{"source": "patent US20040236269A1", "about": "“Microsurgical tissue treatment system” (priority 2002, published 2004)", "assay": "Delivery of a topical anesthetic through micro-ablated stratum corneum; sensation probed with 20 gauge needle or by pinching", "assay_type": "in vivo", "conditions": "solution of 4% lidocaine applied for five minutes to approx. 1 cm^2 area ablated by piezoelectric actuator with 60 micron aluminum oxide particles, 10-15 pulses, 20 kHz; probed with 20 gauge needle or pinching", "experimental": "A piezoelectric actuator was fitted with 60 micron aluminum oxide particles fixed to its surface so as to provide an approximate 1 cm^2 treatment area. Ten to fifteen pulses of less than one second duration were applied with force of less than 1 pound to the area and frequency of 20 kHz. […] A solution of 4% lidocaine was applied to the area and incubated for five minutes. The excess lidocaine was wiped off, and a series of probes was made in and around the area of treatment using a 20 gauge needle or by pinching."}
{"smiles": "CCN(CC)CC(=O)Nc1c(C)cccc1C", "note": "[lidocaine]", "values": [{"measurement": "anesthesia (lack of sensation within and in close proximity to the treatment site)", "result": "significant anesthesia was obtained"}]}
